Measurements as given in US20160222412A1, “R[…] WITH S[…]-LOOP” (Tocagen Inc., priority 2013, published 2016).

How the values were obtained:
[1] = Intravenous Toca 511 in Balb/c mice, long-term vector biolocalization study; type: in vivo
From the text: Intravenous injection of Toca 511 into Balb/C mice. 2.35×10̂6 or 2.35×10̂5 TU of Toca 511 was intravenously administered to 8-week-old female Balb/C mice. Approximately 180 days post infection, genomic DNA from various tissues was harvested for bio-locolization study. Genomic DNA from abnormal tissues such as thymus or lymph node was extracted for sequence analysis of the envelope and IRES-yCD2 cassette.
RRV can undergo changes in the length of the oligo adenosine in the A bulge of the EMCV IRES in vivo. […] In a vector biolocalization study conducted as part of a preclinical package to support initiation of clinical trials, Toca 511 was injected intravenously into a permissive mouse strain (Balb/c mice) to evaluate long-term vector bio-localization. […] DNA from the abnormal thymus or lymph nodes of 3 mice were harvested for molecular PCR cloning of proviral sequences, followed by sequencing analysis. One feature was that there were multiple copies of the virus including recombinants with endogenous mouse MCF envelope sequences present, as occurs with lymphomagenesis with ecotropic MLV infection (Fan, 1997). Further analyses are planned for a future publication. […] It appears that the oligo A number drifts preferentially towards longer oligo A in the A bulge. However, the nature of this preference was undefined in the in vivo study.

U87-MG cells = experiment: yCD2 protein expression by immunoblot in infected U87-MG cells; type: cell-based, human; conditions: fully infected U87-MG cells
Description: RRVs containing various numbers of A's in the J-K bifurcation region express similar levels of transcripts but different levels of protein expression. The viral supernatant from HT1080 cells was then used to infect naive U87-MG cells at multiplicity of infection (MOI) of 0.1. At day 10 post infection, when the cells were fully infected, cellular viral RNA levels were measured by quantitative real-time polymerase chain reaction (qRT-PCR), and protein expression level of yCD2 was examined by immunoblotting (Perez et al., 2012). The cellular viral RNA expression levels were measured using two different primer sets, located in the env (5′Env2: 5′-[…]-3′ (SEQ ID NO:47), 3′Env2: 5′-[…]-3′ (SEQ ID NO:48), probe: 5′FAM-[…]-3′BHQ (SEQ ID NO:49)) and in yCD2 region (5′yCD2: 5′-[…]-3′ (SEQ ID NO:50), 3′yCD2: 5′-[…]-3′ (SEQ ID NO:51), probe: 5′FAM-[…]-3′BHQ (SEQ ID NO:52)), respectively, (FIG. 2). The relative level of RNA from each vector was calculated using 2-^ΔΔ(Ct) method with respect to the vector containing the 6As. […] Therefore, the effect of the number of A's in the loop were analyzed with another transgene for which the protein expression assay was well defined. […]
Immunoblot and cell-based yCD2 enzymatic assay. […] Quantity One software (Bio-Rad) was used to quantify the signal of yCD2 and GAPDH detected on the immunoblots. […]

| Molecule | mice with abnormalities in lymphoid tissues ([1]; higher doses, 180 days, depending on the cohort) | change of oligo A length in A bulge of integrated proviruses in vivo ([1]; intravenous, approximately 180 days, abnormal thymus or lymph node) | yCD2 protein expression in comparison to the 6A variant with full-length IRES (U87-MG cells) |
| --- | --- | --- | --- |
| Toca 511: RRV with a 7A IRES expressing yCD2 (pAC3-yCD2; SEQ ID NO:22) | 10-20% | heterogeneous expansions of 7A to 8A, 9A, 10A, 11A and 12A and a contraction of 7A to 6A |  |
| 6A-466: RRV with yCD2 and minimum IRES, 6As, base 183 to 544 of SEQ ID NO:41 (nucleic acid, listed as Encephalomyocarditis virus, (492)..(492) “n” can be present or absent, if present n is “A”) DNA: AGGAAGCAGTTCCTCTGGAAGCTTCTTGAAGACAAACAACGTCTGTAGCGACCCTTTGCAGGCAGCGGAACCCCCCACCTGGCGACAGGTGCCTCTGCGGCCAAAAGCCACGTGTATAAGATACACCTGCAAAGGCGGCACAACCCCAGTGCCACGTTGTGAGTTGGATAGTTGTGGAAAGAGTCAAATGGCTCTCCTCAAGCGTATTCAACAAGGGGCTGAAGGATGCCCAGAAGGTACCCCATTGTATGGGATCTGATCTGGGGCCTCGGTGCACATGCTTTACATGTGTTTAGTCGAGGTTAAAAANCGTCTAGGCCCCCCGAACCACGGGGACGTGGTTTTCCTTTGAAAAACACGAT |  |  | shows expression of yCD2 |
